These results are taken from patent US20050165029A1, “Pyrrolopyrimidine derivatives and analogs and their use in the treatment and prevention of diseases” (Ambit Biosciences Corporation, priority 2004, published 2005).

For one assay, the target named is T1, ABL1 (Homo sapiens, UniProt P00519).
T1 construct: made in house; host or cells: T7 bacteriophage display
The assay is described as follows: ABL1 phage-display competitive binding assay. The source says:
(§1) Methods for measuring binding affinities for interactions between small molecules and kinases including FLT3, c-KIT, ABL(T334I) [a.k.a. ABL(T315I)], VEGFR-2 (a.k.a. KDR), and EGFR are described in detail in U.S. application Ser. No. 10/873,835, which is incorporated by reference herein in its entirety. The components of the assays include human kinases expressed as fusions to T7 bacteriophage particles and immobilized ligands that bind to the ATP site of the kinases. […] If the test compound binds the kinase it competes with the immobilized ligand and prevents binding to the solid support. […] The results are read out by quantitating the amount of fusion protein bound to the solid support, which is accomplished by either traditional phage plaque assays or by quantitative PCR (qPCR) using the phage genome as a template. […] The concentration of test molecule that reduces the number of phage bound to the solid support by 50% is equal to the Kd for the interaction between the kinase and the test molecule. Typically, data are collected for twelve concentrations of test compound and, the resultant binding curve is fit to a non-cooperative binding isotherm to calculate Kd.
(§2) Described in the exemplary assays below is data from binding with varying kinases. […] The term “ND” represents non-determined values.

The target of a further assay is T2, VEGFR2 (Homo sapiens, UniProt P35968).
T2 construct: made in house; host or cells: T7 bacteriophage display
T2 sequence (P35968 20-1356): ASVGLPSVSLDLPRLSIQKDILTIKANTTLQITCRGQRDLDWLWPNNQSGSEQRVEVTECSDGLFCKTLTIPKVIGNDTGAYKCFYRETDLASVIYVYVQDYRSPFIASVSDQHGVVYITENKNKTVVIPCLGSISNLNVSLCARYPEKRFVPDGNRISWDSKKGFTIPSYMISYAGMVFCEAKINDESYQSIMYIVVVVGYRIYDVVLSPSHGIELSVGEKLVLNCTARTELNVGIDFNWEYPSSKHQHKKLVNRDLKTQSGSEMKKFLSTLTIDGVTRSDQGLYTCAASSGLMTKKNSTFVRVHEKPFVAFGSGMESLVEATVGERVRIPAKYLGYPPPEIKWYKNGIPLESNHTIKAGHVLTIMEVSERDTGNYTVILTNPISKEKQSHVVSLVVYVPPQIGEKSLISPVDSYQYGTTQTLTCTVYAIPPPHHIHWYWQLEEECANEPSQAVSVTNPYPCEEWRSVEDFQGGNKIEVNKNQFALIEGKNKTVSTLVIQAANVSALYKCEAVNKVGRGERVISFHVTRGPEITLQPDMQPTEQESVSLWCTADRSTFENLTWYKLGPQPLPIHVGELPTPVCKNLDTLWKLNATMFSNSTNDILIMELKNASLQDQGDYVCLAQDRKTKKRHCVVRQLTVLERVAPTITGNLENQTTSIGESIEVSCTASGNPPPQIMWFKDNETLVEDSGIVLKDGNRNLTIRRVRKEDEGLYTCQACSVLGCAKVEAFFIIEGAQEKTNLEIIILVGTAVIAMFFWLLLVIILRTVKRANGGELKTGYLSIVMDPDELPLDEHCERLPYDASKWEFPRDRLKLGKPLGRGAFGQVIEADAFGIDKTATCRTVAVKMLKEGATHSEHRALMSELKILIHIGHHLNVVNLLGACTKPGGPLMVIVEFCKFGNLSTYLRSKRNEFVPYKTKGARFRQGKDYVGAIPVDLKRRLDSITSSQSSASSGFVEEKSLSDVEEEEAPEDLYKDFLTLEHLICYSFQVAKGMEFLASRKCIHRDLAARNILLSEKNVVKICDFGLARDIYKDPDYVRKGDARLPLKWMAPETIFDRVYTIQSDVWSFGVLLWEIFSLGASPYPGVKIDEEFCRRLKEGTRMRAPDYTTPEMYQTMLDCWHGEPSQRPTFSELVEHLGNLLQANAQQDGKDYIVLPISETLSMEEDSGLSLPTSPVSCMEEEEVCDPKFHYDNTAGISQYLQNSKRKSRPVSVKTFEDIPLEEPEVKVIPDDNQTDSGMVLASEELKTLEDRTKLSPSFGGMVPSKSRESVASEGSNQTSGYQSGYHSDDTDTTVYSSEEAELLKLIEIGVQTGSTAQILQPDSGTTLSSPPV
Briefly: VEGFR2(DKIN) phage-display competitive binding assay.
Excerpt: as §1, §2

For another assay, the target named is T3, FLT3 (Homo sapiens, UniProt P36888).
T3 construct: made in house; host or cells: T7 bacteriophage display
T3 sequence (P36888 27-993): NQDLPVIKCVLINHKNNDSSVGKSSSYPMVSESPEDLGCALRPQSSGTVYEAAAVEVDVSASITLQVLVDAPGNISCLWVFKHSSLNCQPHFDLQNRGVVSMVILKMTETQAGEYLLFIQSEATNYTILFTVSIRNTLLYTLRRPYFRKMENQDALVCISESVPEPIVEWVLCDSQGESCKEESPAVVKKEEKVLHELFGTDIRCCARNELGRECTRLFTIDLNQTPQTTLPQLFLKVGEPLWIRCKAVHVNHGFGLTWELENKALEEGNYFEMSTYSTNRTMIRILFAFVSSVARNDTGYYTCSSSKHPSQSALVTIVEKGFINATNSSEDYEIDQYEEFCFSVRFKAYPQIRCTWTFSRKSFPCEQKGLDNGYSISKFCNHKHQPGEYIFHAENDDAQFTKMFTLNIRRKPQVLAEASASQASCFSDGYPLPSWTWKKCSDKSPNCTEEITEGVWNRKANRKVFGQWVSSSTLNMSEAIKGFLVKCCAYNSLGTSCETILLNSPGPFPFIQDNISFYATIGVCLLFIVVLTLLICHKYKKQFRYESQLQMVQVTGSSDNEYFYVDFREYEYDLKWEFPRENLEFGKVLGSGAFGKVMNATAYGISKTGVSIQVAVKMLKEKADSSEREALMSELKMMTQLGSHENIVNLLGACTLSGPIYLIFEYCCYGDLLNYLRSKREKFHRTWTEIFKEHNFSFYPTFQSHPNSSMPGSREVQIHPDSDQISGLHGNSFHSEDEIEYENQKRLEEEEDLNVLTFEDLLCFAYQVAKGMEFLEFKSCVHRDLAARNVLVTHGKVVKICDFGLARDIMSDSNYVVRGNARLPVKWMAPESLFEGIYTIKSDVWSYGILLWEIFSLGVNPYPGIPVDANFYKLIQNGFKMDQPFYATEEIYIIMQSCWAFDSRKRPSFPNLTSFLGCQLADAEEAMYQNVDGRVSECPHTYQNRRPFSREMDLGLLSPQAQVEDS
Briefly: FLT3(DKIN) phage-display competitive binding assay.
Excerpt: as §1, §2

Another assay deals with T4, PDGFR-β (Homo sapiens, UniProt P09619).
T4 construct: made in house; host or cells: T7 bacteriophage display
T4 sequence (P09619 33-1106): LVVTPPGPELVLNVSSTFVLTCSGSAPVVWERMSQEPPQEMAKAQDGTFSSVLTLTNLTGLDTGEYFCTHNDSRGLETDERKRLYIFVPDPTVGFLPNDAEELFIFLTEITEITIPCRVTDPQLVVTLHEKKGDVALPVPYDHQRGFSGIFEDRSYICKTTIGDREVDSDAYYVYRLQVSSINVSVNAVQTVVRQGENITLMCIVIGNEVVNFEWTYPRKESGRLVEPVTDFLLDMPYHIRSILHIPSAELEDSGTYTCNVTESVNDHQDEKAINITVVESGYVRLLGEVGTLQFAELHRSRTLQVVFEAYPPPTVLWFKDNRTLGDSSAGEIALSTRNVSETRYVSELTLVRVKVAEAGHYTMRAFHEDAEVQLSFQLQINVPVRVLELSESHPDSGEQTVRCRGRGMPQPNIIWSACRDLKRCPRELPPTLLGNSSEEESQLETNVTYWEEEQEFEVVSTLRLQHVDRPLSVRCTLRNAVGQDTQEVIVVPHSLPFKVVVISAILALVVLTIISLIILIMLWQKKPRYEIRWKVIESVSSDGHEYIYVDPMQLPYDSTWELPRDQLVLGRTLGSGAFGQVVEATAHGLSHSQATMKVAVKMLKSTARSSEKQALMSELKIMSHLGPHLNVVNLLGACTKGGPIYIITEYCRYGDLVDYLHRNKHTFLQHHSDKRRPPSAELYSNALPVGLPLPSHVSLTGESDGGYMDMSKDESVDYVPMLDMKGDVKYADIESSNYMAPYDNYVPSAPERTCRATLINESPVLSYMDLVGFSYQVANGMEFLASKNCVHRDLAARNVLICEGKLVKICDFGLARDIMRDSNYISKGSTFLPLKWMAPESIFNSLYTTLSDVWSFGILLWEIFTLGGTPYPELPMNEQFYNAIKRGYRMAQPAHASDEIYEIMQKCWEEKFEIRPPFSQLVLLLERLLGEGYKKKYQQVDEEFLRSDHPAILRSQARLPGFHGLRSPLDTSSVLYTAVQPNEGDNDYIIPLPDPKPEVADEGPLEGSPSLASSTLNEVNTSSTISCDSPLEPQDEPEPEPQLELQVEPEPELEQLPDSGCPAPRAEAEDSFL
Briefly: PDGFR-β (DKIN) phage-display competitive binding assay. As to the method: as §2
Kd values for the interactions between PDGFR-β and candidate small molecule ligands were measured by a phage-display-based competitive binding assay that is described in detail in U.S. Ser. No. 10/406,797 filed 2 Apr. 2003 and incorporated herein by reference, Briefly, T7 phage displaying human PDGFR-β were incubated with an affinity matrix coated with known PDGFR-β inhibitor in the presence of various concentrations of the soluble competitor molecules. […] The Kd for the interaction between the soluble competitor molecule and PDGFR-β is equal to the concentration of soluble competitor molecule that causes a 50% reduction in the number of phage recovered in the eluate compared to a control sample lacking soluble competitor. Since this assay is generic, and any molecule can be used as a soluble competitor, we have determined Kd values for the interaction between PDGFR-β and several small molecules, including those shown below.

The test system of a further assay is MV4,11 cells. Briefly: FLT3 assay using MV4,11 cells (cell proliferation, MTS). As to conditions: Homo sapiens, MV 4,11 cells, 0.5% serum, read-out: (MV 4,11) Cell Proliferation Assay with 0.5% Serum IC50 (nM) “CS0001”. The assay is classed as cell-based. As to the method: The ability of FLT3 kinase inhibitors to inhibit cellular proliferation was also examined. MV4:11 was a cell line derived from a patient with acute myelogenous leukemia. It expressed a mutant FLT3 protein that was constitutively active. […] Inhibition of FLT3 kinase activity prevented proliferation of these cells, and thus the MV4:11 cell line can be used a model for cellular activity of small molecule inhibitors of FLT3.
FLT3 assay using MV4,11 cells
MV4,11 cells were grown in an incubator @ 37° C. in 5% CO2 in Medium 2 (RPMI, 10% FBS, 4 mM glutamine, Penn/Strep). The cells were counted daily and the cell density was kept between 1e5 and 8e5 cells/ml.
Day One: Enough cells were harvested for experiments to be conducted in 50 ml conical tubes. The harvested cells were spun at 500 g for 5 min at 4° C., the supernatant was then aspirated and the cells were resuspended in the starting volume of 1×PBS. The cells were again spun at 500 g for 5 min at 4° C. and the supernatant again aspirated. […]
Day Two: The cells were counted and enough medium 3 was added to decrease density to 2e5 cells/ml. 50 ul (10,000 cells) was aliquoted into each well of a 96 well optical plate using multichannel pipetman. The compound plate was then set up by aliquoting 3 μl of negative control (DMSO) into column 1 of a 96 well 300 ul polypropylene plate, aliquoting 3 μl of positive control (10 mM AB20121) into column 12 of plate, and aliquoting 3 μl of appropriate compounds from serial dilutions into columns 2-11. To each well, 150 μl of Medium 3 was added and 50 μl of compound/medium mixture from compound plate into rows of optical plate in duplicate. The cells were then incubated at @ 37° C. in 5% CO2 for 3 days.
Day Five: MTS was thawed in a H2O bath. 20 μl of MTS was added to each well of optical plate and the cells were incubated @ 37° C. in 5% CO2 for 2 hours. The plate was then placed on a plate shaker for 30 seconds on high speed.

Assay [1] addresses T5, inactive form of KIT, which contains the autoinhibitory juxtamembrane domain (Homo sapiens, UniProt P10721).
T5 construct: made in house; host or cells: T7 bacteriophage display
The assay is described as follows: KIT (DKIN) Binding Assay. As to conditions: inactive form of KIT with autoinhibitory juxtamembrane domain.
Excerpt: as §1, §2

T1 sequence (P00519 whole entry): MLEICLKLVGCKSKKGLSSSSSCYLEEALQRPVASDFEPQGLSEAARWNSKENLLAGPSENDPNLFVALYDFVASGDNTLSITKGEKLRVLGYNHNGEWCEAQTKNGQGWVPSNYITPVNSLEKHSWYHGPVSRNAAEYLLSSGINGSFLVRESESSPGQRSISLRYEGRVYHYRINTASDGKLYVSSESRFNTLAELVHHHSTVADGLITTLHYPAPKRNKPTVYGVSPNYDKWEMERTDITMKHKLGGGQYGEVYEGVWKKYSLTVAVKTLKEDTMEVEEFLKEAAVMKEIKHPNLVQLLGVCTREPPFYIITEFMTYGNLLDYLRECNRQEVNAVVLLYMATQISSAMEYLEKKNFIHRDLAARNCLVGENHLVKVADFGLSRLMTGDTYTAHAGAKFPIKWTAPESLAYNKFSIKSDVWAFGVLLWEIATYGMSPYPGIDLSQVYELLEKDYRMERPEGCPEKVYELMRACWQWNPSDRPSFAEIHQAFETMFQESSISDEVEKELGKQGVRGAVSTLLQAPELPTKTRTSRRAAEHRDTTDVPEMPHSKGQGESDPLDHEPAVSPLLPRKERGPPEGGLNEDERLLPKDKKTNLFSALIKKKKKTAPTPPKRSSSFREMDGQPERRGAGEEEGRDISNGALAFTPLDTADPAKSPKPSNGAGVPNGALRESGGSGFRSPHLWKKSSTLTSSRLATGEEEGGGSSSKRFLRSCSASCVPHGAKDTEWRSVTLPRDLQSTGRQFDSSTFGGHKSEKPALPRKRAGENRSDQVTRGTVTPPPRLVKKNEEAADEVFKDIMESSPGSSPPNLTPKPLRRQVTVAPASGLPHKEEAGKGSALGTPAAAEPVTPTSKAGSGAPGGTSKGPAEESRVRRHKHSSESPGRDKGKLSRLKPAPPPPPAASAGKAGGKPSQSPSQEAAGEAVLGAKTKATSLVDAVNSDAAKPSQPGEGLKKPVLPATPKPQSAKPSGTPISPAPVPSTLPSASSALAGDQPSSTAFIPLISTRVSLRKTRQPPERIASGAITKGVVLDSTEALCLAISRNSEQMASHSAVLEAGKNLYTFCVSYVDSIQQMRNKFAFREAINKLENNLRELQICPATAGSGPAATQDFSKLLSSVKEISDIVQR
T5 sequence (P10721 546-976 limits assumed): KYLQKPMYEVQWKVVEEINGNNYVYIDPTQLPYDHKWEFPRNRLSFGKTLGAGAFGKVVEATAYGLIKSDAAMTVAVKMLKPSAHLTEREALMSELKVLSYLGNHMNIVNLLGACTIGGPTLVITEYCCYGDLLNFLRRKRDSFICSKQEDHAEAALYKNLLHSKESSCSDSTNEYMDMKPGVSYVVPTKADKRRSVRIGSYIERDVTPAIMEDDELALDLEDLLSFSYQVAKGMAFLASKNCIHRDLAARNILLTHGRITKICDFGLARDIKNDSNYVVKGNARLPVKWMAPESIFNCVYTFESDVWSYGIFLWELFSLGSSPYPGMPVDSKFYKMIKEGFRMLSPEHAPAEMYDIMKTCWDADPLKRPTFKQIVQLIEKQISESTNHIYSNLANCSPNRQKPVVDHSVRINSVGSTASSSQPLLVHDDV

`COc1ccc(-c2cc3c(Sc4ccc(Cl)c(Cl)c4)ncnc3[nH]2)cc1` [Compound J3]: the Kd (as a rule, a measure of binding affinity in units of concentration) at ABL1 was less than 100 nM.

`Oc1ccc(-c2cc3c(Sc4ccccc4)ncnc3[nH]2)cc1` [Compound L10] had a Kd at VEGFR2 of more than 10000 nM.

Regarding `Cc1ccc(Sc2ncnc3[nH]c(-c4ccc(O)cc4)cc23)cc1` [Compound L9], the Kd was 100 to 1000 nM on FLT3, 1000 to 10000 nM at PDGFR-β, 100 to 1000 nM on ABL1 and 100 to 1000 nM on VEGFR2.

On FLT3, `COc1ccc(-c2cc3c(Sc4ccccc4)ncnc3n2C)cc1` [Compound O7] returned a Kd of 100 to 1000 nM.

As to `COc1cccc(Sc2ncnc3[nH]c(-c4cccc(OC)c4)cc23)c1` [Compound J26], the Kd on ABL1 lay within 100 to 1000 nM.

`COc1ccc(-c2cc3c(Oc4cccc(OC)c4)ncnc3[nH]2)cc1` [Compound D7] yielded an equilibrium dissociation constant (Kd) at PDGFR-β of 100 to 1000 nM.

With `Clc1ccc(Sc2ncnc3c2[nH]c2ccccc23)cc1Cl` [Compound K5], the IC50 in the assay with MV4,11 cells was more than 10000 nM.

At ABL1, `Cc1ccc(-c2cc3c(Sc4cccc(F)c4)ncnc3[nH]2)cc1` [Compound J17] returned a Kd of 1000 to 10000 nM.

Take `Cc1ccc(Sc2ncnc3c2cc(-c2ccc(OC(C)C)cc2)n3C(C)C)cc1` [Compound O13]: the Kd at FLT3 was in the range of 1000 to 10000 nM.

Turning to `COc1ccc(-c2cc3c(Sc4ccc(C)cc4)ncnc3[nH]2)cc1` [Compound J14], the Kd at PDGFR-β and on VEGFR2 was 100 to 1000 nM each time.

`COc1ccc(-c2cc3c(Sc4ccccc4)ncnc3[nH]2)cc1` [Compound J16]: the dissociation constant (Kd) at FLT3 is 100 to 1000 nM; at PDGFR-β, 100 to 1000 nM; in assay [1], 1000 to 10000 nM. The IC50 in the assay on MV4,11 cells was less than 100 nM.

Consider `COc1ccc(-c2cc3c(Sc4ccc(C)cc4)ncnc3n2C)cc1` [Compound O11], for which the Kd at FLT3 lay in the range of 100 to 1000 nM.

In the case of `COc1cccc(Sc2ncnc3[nH]c(-c4ccc(O)cc4)cc23)c1` [Compound L4], the Kd at ABL1 and at VEGFR2 was 100 to 1000 nM each time.

As to `COc1ccc(-c2cc3c(Oc4ccc(C)cc4)ncnc3[nH]2)cc1` [Compound D14], the Kd on FLT3 and on PDGFR-β was 1000 to 10000 nM throughout.

Compound `COc1ccc(-c2cc3c(Sc4ccc(Cl)cc4)ncnc3[nH]2)cc1` [Compound J12] displayed a Kd at PDGFR-β of 1000 to 10000 nM.

As to `Clc1ccccc1Sc1ncnc2[nH]ccc12` [Compound F1, 4-(2-Chloro-phenylsulfanyl)-7H-pyrrolo[2,3-d]pyrimidine], the Kd at FLT3 was more than 10000 nM.

`Oc1ccc(-c2cc3c(Sc4ccc(Cl)cc4)ncnc3[nH]2)cc1` [Compound L7] showed a Kd on VEGFR2 of 1000 to 10000 nM.

For the compound `COc1ccc(-c2cc3c(Sc4ccccc4)ncnc3n2C(C)C)cc1` [Compound O10], the Kd on FLT3 was in the range of 100 to 1000 nM.

`COc1ccc(-c2cc3c(Sc4cccc(OC)c4)ncnc3[nH]2)cc1` [Compound J9] had a Kd at ABL1 of 100 to 1000 nM.

Regarding `CC(C)Oc1ccc(-c2cc3c(Sc4ccccc4)ncnc3n2C(C)C)cc1` [Compound O9], the Kd on FLT3 lay in the range of 100 to 1000 nM.

Take `CCOc1ccc(-c2cc3c(Sc4ccccc4)ncnc3n2CC)cc1` [Compound O8]: on FLT3, the Kd was in the range of 100 to 1000 nM.

Compound `COc1ccc(-c2cc3c(Oc4ccc(Cl)cc4)ncnc3[nH]2)cc1` [Compound D11] returned a Kd at PDGFR-β of 100 to 1000 nM.

Regarding `COc1cccc(-c2cc3c(Oc4ccc(Cl)cc4)ncnc3[nH]2)c1` [Compound D22], the Kd on PDGFR-β fell in the range of 100 to 1000 nM.

`COc1ccc(-c2cc3c(Sc4ccc(C)cc4)ncnc3n2C(C)C)cc1` [Compound O14] showed an equilibrium dissociation constant (Kd) on FLT3 of 1000 to 10000 nM.

Regarding `Cc1cc(C)cc(Sc2ncnc3[nH]c(-c4ccc(O)cc4)cc23)c1` [Compound J18], the Kd at ABL1 fell in the range of 1000 to 10000 nM.

As to `COc1ccc(-c2cc3c(Oc4cccc(C)c4)ncnc3[nH]2)cc1` [Compound D8], the dissociation constant (Kd) at PDGFR-β lay within 1000 to 10000 nM.

With `COc1ccc(-c2cc3c(Oc4ccc(F)cc4)ncnc3[nH]2)cc1` [Compound D13], the Kd on FLT3 and on PDGFR-β was 100 to 1000 nM each time.

At FLT3, `COc1ccc(-c2cc3c(Sc4cc(C)cc(C)c4)ncnc3[nH]2)cc1` [Compound J5] yielded a Kd of more than 10000 nM. Moreover, the IC50 in the assay on MV4,11 cells was less than 100 nM.

For the compound `COc1cccc(Oc2ncnc3[nH]c(-c4ccc(O)cc4)cc23)c1` [Compound E4], the Kd on VEGFR2 is 1000 to 10000 nM.

For the compound `CCOc1ccc(-c2cc3c(Sc4ccc(C)cc4)ncnc3n2CC)cc1` [Compound O12], the Kd on FLT3 lay in the range of 100 to 1000 nM.

Compound `Cc1cccc(Sc2ncnc3[nH]c(-c4ccc(O)cc4)cc23)c1` [Compound L5] gave a Kd at VEGFR2 of more than 10000 nM.

For the compound `COc1cccc(-c2cc3c(Oc4ccccc4)ncnc3[nH]2)c1` [Compound D24], the Kd on FLT3 lay in the range of 100 to 1000 nM; on PDGFR-β, 1000 to 10000 nM.

For `COc1ccc(-c2cc3c(Sc4ccc(F)c(Cl)c4)ncnc3[nH]2)cc1` [Compound J37], the Kd on FLT3 and on PDGFR-β was 100 to 1000 nM each time. The IC50 in the assay with MV4,11 cells fell in the range of 100 to 1000 nM.

For `Oc1ccc(-c2cc3c(Sc4ccc(F)cc4)ncnc3[nH]2)cc1` [Compound L8], the Kd on VEGFR2 was more than 10000 nM.
